For ten compounds, IC50 and Activity results are on record in ChEMBL document CHEMBL4665700, “Cytotoxic Bufadienolides from the Leaves of Melianthus major” (J Nat Prod, 2020).

What all share (type): functional
For assay [1], the system named is ADR5000 cell line. Nature of the assay: Cytotoxicity against human CEM/ADR5000 cells assessed as reduction in cell viability after 72 hrs by resazurin dye-based fluorescence assay. To be noted: ADR5000, 72 h. For orientation: The colour change of resazurin is a common sign of viable cells or microbes.
For assay [2], the system named is MCF7. Nature of the assay: Cytotoxicity against human MCF7 cells assessed as reduction in cell viability after 72 hrs by resazurin dye-based fluorescence assay. To be noted: MCF7, 72 h.
Assay [3] deals with CCRF-CEM. Description: Cytotoxicity against human CCRF-CEM cells assessed as reduction in cell viability after 72 hrs by resazurin dye-based fluorescence assay.
Assay [4] deals with MCF7. Nature of the assay: Cytotoxicity against human MCF7 cells assessed as reduction in cell viability at 10 uM after 72 hrs by resazurin dye-based fluorescence assay.
Assay [5] deals with ADR5000 cell line. Description: Cytotoxicity against human CEM/ADR5000 cells assessed as reduction in cell viability at 10 uM after 72 hrs by resazurin dye-based fluorescence assay.
Assay [6] deals with CCRF-CEM. Nature of the assay: Cytotoxicity against human CCRF-CEM cells assessed as reduction in cell viability at 10 uM after 72 hrs by resazurin dye-based fluorescence assay.

The structures appear in SMILES notation. Calls of active or inactive are those of the source. No cut-off for these calls is given here.

For orientation: IC50 means the concentration that inhibits the measured activity by half. Take `CC(=O)O[C@H]1C[C@]2(C=O)[C@H]3CC[C@]4(C)[C@@H](c5ccc(=O)oc5)CC[C@]4(O)[C@@H]3CC[C@]2(O)C[C@H]1OC(C)=O`: the IC50 with ADR5000 cell line [1] amounted to 500 nM; in the assay on MCF7 [2], 3500 nM; in the assay on CCRF-CEM [3], 500 nM.
For `C[C@@]12O[C@H]3C[C@@H](O1)[C@]1(C=O)[C@H]4CC[C@]5(C)[C@@H](c6ccc(=O)oc6)CC[C@]5(O)[C@@H]4CC[C@@]1(C3)O2`, the IC50 in the assay on ADR5000 cell line [1] worked out at 200 nM; in the assay with MCF7 [2], 1000 nM; in the assay on CCRF-CEM [3], 200 nM.
For `CC(=O)OC[C@]12[C@H]3C[C@H]4C[C@]1(CC[C@@H]1[C@@H]2CC[C@]2(C)[C@@H](c5ccc(=O)oc5)CC[C@]12O)OC(C)(O4)O3`, the outcome in the assay on MCF7 [4], in the assay on ADR5000 cell line [5] and in the assay on CCRF-CEM [6] was inactive.
Consider `C[C@@]12O[C@H]3C[C@@H](O1)[C@]1(C=O)[C@H]4CC[C@@]5(C)[C@@H]([C@@H]4CC[C@@]1(C3)O2)[C@@H]1O[C@@H]1[C@@H]5c1ccc(=O)oc1`, for which the figures for the IC50 with ADR5000 cell line [1], in the assay on MCF7 [2] and with CCRF-CEM [3] were 1600 nM, 4500 nM and 1600 nM, respectively.
For the compound `C[C@@]12O[C@H]3C[C@@H](O1)[C@]1(C=O)[C@H]4CC[C@]5(C)[C@@H](c6ccc(=O)oc6)[C@@H](O)C[C@]5(O)[C@@H]4CC[C@@]1(C3)O2`, the values for the IC50 in the assay with ADR5000 cell line [1], in the assay with MCF7 [2] and with CCRF-CEM [3] were 800 nM, 3100 nM and 600 nM, respectively.
Take `COc1cccc2c1C(=O)c1c(O)c3c(c(O)c1C2=O)C[C@@](O)(C(=O)CO)C[C@@H]3O[C@H]1C[C@H](N)[C@H](O)[C@H](C)O1` [DOXORUBICIN]: the IC50 with MCF7 [2] was 180 nM; in the assay on CCRF-CEM [3], 20 nM.
As to `CC(=O)OC[C@]12[C@@H]3OC4(C)O[C@H](C[C@]1(CC[C@@H]1[C@@H]2CC[C@]2(C)[C@@H](c5ccc(=O)oc5)[C@H]5O[C@H]5[C@]12O)O4)[C@H]3OC(C)=O`, the result in the assay on MCF7 [4], in the assay with ADR5000 cell line [5] and with CCRF-CEM [6] was inactive.
Take `CC(=O)O[C@H]1C[C@]2(C=O)[C@H]3CC[C@]4(C)[C@@H](c5ccc(=O)oc5)CC[C@]4(O)[C@@H]3CC[C@]2(OC(C)=O)C[C@H]1OC(C)=O`: the IC50 was 100 nM in the assay on ADR5000 cell line [1], 300 nM in the assay on MCF7 [2] and 100 nM in the assay on CCRF-CEM [3].
On to `CC(=O)O[C@H]1[C@H]2O[C@@]3(C)O[C@@H]1C[C@]1(CC[C@H]4[C@H]5[C@@H]6O[C@@H]6[C@H](c6ccc(=O)oc6)[C@@]5(C)CC[C@@H]4[C@@]21C=O)O3`, for which the IC50 in the assay with ADR5000 cell line [1] was 1800 nM; with MCF7 [2] it was 4300 nM; with CCRF-CEM [3] it was 1600 nM.
Regarding `CC(=O)OC[C@]12[C@@H]3OC4(C)O[C@H](C[C@]1(CC[C@@H]1[C@@H]2CC[C@]2(C)[C@@H](c5ccc(=O)oc5)CC[C@]12O)O4)[C@H]3O`, the result in the assay on MCF7 [4], in the assay on ADR5000 cell line [5] and with CCRF-CEM [6] was inactive.
